According to ChEMBL document CHEMBL1201862, “PubChem BioAssay data set” (2004):
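Five concentrations, 48 hours, 96-well plates. The concentration for 50% growth inhibition is given as GI50.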 The source made the active and inactive calls. No stated cut-off is given here; in the data, active = GI50 up to about 1.1 µM and inactive = higher. Where a SMILES comes first, the peptide text is derived from it. Bridges are numbered along the chain shown (N, C = ends). [ ]: non-standard residue; d: D form. The star is where a group is joined. ξ: configuration not given here. ξNMePhe(4-NMe2) = CNC(Cc1ccc(N(C)C)cc1)C(=O)O; Picolinoyl(3-OH) = O=C(c1ncccc1O)*; ξPip(4-oxo) = O=C1CCNC(C(=O)O)C1; Phg = N[CH](C(=O)O)c1ccccc1; Abu = CC[CH](N)C(=O)O

Columns and labels:
Experiment in all cases: NCI anticancer screen, dose series, 48 h
786-0 = system: 786-0
COLO 205 = system: COLO 205
DU-145 = system: DU-145
HCC 2998 = system: HCC 2998
HCT-116 = system: HCT-116
HL-60 = system: HL-60
Hs-578T = system: Hs-578T
M14 = system: M14
MCF7 = system: MCF7
MOLT-4 = system: MOLT-4
NCI-H226 = system: NCI-H226
NCI-H522 = system: NCI-H522
OVCAR-5 = system: OVCAR-5
RPMI-8226 = system: RPMI-8226
SK-MEL-28 = system: SK-MEL-28
SK-OV-3 = system: SK-OV-3
SNB-75 = system: SNB-75
TK-10 = system: TK-10
UACC-257 = system: UACC-257
UO-31 = system: UO-31

SMILES | GI50 (786-0) | GI50 (COLO 205) | GI50 (DU-145) | GI50 (HCC 2998) | GI50 (HCT-116) | GI50 (HL-60) | GI50 (Hs-578T) | GI50 (M14) | GI50 (MCF7) | GI50 (MOLT-4) | GI50 (NCI-H226) | GI50 (NCI-H522) | GI50 (OVCAR-5) | GI50 (RPMI-8226) | GI50 (SK-MEL-28) | GI50 (SK-OV-3) | GI50 (SNB-75) | GI50 (TK-10) | GI50 (UACC-257) | GI50 (UO-31)
COc1ccc2c(-c3cc4ccccc4o3)cc(=O)oc2c1 | 25.8 µM (inactive) | > 100 µM (inactive) | > 74.8 µM (inactive) | > 55.1 µM (inactive) | 42.3 µM (inactive) | > 100 µM (inactive) | 11.4 µM (inactive) | 75.7 µM (inactive) | > 67.3 µM (inactive) | > 100 µM (inactive) | 58.5 µM (inactive) | 37.2 µM (inactive) | > 42.2 µM (inactive) | > 88.7 µM (inactive) | 53.7 µM (inactive) | 23.1 µM (inactive) | 8.17 µM (inactive) | 21.7 µM (inactive) | 54.8 µM (inactive) | 15 µM (inactive)
CC1=C/C(O)CC(=O)Cc2nc(co2)C(=O)N2CCC=C2C(=O)OC(C(C)C)C(C)/C=C/C(=O)NC\C=C\1.CCC1NC(=O)C(NC(=O)c2ncccc2O)C(C)OC(=O)C(c2ccccc2)NC(=O)C2CC(=O)CCN2C(=O)C(Cc2ccc(N(C)C)cc2)N(C)C(=O)C2CCCN2C1=O (stereo not given) ({Picolinoyl(3-OH)}-T[Abu]P[ξNMePhe(4-NMe2)][ξPip(4-oxo)][Phg]; ester 1-C; configuration not given here) | 15.5 µM (inactive) | 6.59 µM (inactive) | 7.33 µM (inactive) | 11.6 µM (inactive) | 6.4 µM (inactive) | 3.71 µM (inactive) | 18.2 µM (inactive) | 15 µM (inactive) | 7.29 µM (inactive) | 3.64 µM (inactive) | 13.6 µM (inactive) | 9.1 µM (inactive) | 31.5 µM (inactive) | 4.68 µM (inactive) | 13.7 µM (inactive) | 25.5 µM (inactive) | 24.7 µM (inactive) | 27.2 µM (inactive) | 6.08 µM (inactive) | 20.8 µM (inactive)
CC(=O)O[C@H]1C[C@]2(C)C(CCC3O[C@@]32C)[C@@]2(CC(c3ccoc3)OC2O)[C@@H]1C (stereo not given in full) | > 100 µM (inactive) | > 100 µM (inactive) | > 100 µM (inactive) | > 100 µM (inactive) | 60.8 µM (inactive) | 21.6 µM (inactive) | > 100 µM (inactive) | > 100 µM (inactive) | 44.3 µM (inactive) | 29.6 µM (inactive) | > 100 µM (inactive) | 44.3 µM (inactive) | > 100 µM (inactive) | 28.9 µM (inactive) | > 100 µM (inactive) | > 100 µM (inactive) | > 100 µM (inactive) | > 100 µM (inactive) | 63.4 µM (inactive) | 59.3 µM (inactive)
CC[C@@]1(O)C(=O)OCc2c1cc1n(c2=O)Cc2cc3c(N)cccc3nc2-1 [9-AMINOCAMPTOTHECIN] | < 0.01 µM (active) | 0.157 µM (active) | < 0.01 µM (active) | 0.111 µM (active) | 0.0272 µM (active) | < 0.01 µM (active) | 4.22 µM (inactive) | 0.0113 µM (active) | < 0.01 µM (active) | < 0.01 µM (active) | 0.0102 µM (active) | 0.0181 µM (active) | 0.128 µM (active) | 0.0764 µM (active) | 0.177 µM (active) | 0.0157 µM (active) | < 0.0115 µM (active) | 1.63 µM (inactive) | 0.0571 µM (active) | 0.0175 µM (active)
C[n+]1c2ccccc2n2c3ccccc3c(NCCCn3ccnc3)c(C#N)c21 | 2.04 µM (inactive) | 1.23 µM (inactive) | 2.77 µM (inactive) | 1.36 µM (inactive) | 1.08 µM (active) | 3.94 µM (inactive) | 1.64 µM (inactive) | 2.26 µM (inactive) | 0.547 µM (active) | 0.533 µM (active) | 2.85 µM (inactive) | 0.575 µM (active) | 4.1 µM (inactive) | 1.22 µM (inactive) | 3.48 µM (inactive) | 3.54 µM (inactive) | 1.66 µM (inactive) | 7.11 µM (inactive) | 3.85 µM (inactive) | 7.21 µM (inactive)
Cc1cc(S(N)(=O)=O)c(SCc2nc(N)nc(N(C)C)n2)cc1Cl | > 10 µM (inactive) | > 10 µM (inactive) | > 10 µM (inactive) | > 10 µM (inactive) | > 10 µM (inactive) | > 10 µM (inactive) | > 10 µM (inactive) | > 10 µM (inactive) | > 10 µM (inactive) | > 10 µM (inactive) | > 10 µM (inactive) | > 10 µM (inactive) | > 10 µM (inactive) | > 10 µM (inactive) | > 10 µM (inactive) | > 10 µM (inactive) | > 10 µM (inactive) | > 10 µM (inactive) | > 10 µM (inactive) | > 10 µM (inactive)
